Values of other authors, collected in patent publication US11071781B2, “Combination of local and systemic immunomodulative therapies for enhanced treatment of cancer” (Provectus Pharmatech, Inc., priority 2011, dated 2021).
Where “and” joins values, the source holds several entries; their conditions need not be identical. Identical values can stand only once. Like-named read-outs stand apart in the source and are kept apart here.

Columns and labels:
[1] = test system: cancer cells; conditions: previous work, WO 02/05812
[2] = test system: melanoma; conditions: for toxicity and side effects: patients
[3] = intralesional therapy, melanoma patients

## O=C1OC2(c3cc(I)c(O)c(I)c3Oc3c2cc(I)c(O)c3I)c2c(Cl)c(Cl)c(Cl)c(Cl)c21 [rose bengal, 4,5,6,7-tetrachloro-2′,4′,5′,7′-tetraiodofluorescein]
[1]
  uptake into cancer cells versus normal cells: preferential uptake into cancer cells but is essentially excluded from normal cells

## N.N.[Cl][Pt][Cl] [cisplatin, reference compound]
[2]; [3]
  objective response rate (ORR): 38% and 53%
[2]; lesions having a median diameter of 3.0 cm
  ORR: 44%
[2]; lesions with a median diameter of 0.6 cm
  ORR: 53%

## IFN-α
[2]; [3]
  complete response (CR): 31%
  objective response rate (ORR): 45%
  partial response (PR): 14%
[2]; intralesional therapy
  toxicity and side effects: significant toxicity and side effects

## bleomycin [reference compound]
[2]; single electrochemotherapy treatment, intralesional
  efficacy (in words): Substantial efficacy

B1: IFN-γ: interferon-gamma, non-specific cytokine (protein, UniProt P01579 24-161, looked up)
Interferon gamma: QDPYVKEAENLKKYFNAGHSDVADNGTLFLGILKNWKEESDRKIMQSQIVSFYFKLFKNFKDDQSIQKSVETIKEDMNVKFFNSNKKKRDDFEKLTNYSVTDLNVQRKAIHELIQVMAELSPAAKTGKRKRSQMLFRG
[2]; intralesional interferon
  response to IL therapy (in words): either no result or transient response
[2]; intralesional therapy
  toxicity and side effects: significant toxicity and side effects
